Results reported in patent US8618068B2, “Methods and low dose regimens for treating red blood cell disorders” (priority 2009, dated 2013).
Where two headings read alike, the source gives them in different places.

Experiments:
Solubility in water = format: physicochemical
γ-globin mRNA = γ-globin mRNA in μLCR-human Aγ-globin transgenic mice; format: in vivo; settings: after treatment with DMB
Text: Transgenic mice containing the human β globin gene locus in a yeast artificial chromosome (βYAC) displaying the correct developmental regulation of ε-, γ-, and β-globin genes (with a silenced y-globin gene in the adult stage) were used to study the effects of DMB on γ-globin induction and erythroid cell production. In the μLCR-human A γ-globin transgenic mice, the y-globin mRNA expression relative to murine α-globin mRNA was increased by a mean of 1.8-fold above the baseline after treatment with DMB. In the βYAC transgenic mice at intraperitoneal (IP) doses of 500 mg/kg/day, DMB induced a 2-fold increase in human γ-globin mRNA synthesis relative to that of total non-α-globin. This level of induction was similar to that seen with 1,000 mg/kg/day of butyrate, and the changes were observed from 3 days after treatment initiation and persisted until 3 to 5 days after treatment termination.

in vivo = assay: in vivo; set-up: species or system Beagle dogs; settings: Beagle, dog; for AUC(0-inf): both sexes, po
Experimental: DMB was administered orally by capsule to Beagle dogs for 26 weeks at dose levels of 0, 50, 150 and 300 mg/kg/day. Plasma levels were measured at 1 to 24 hours post-dose on Days 1 and 181. Peak plasma concentrations were measured at 1 to 4 hour postdose on Day 0, and at 1 to 8 hours postdose during Week 26. Systemic exposure increased with increasing dose level and was greater than dose-proportional on Day 0 and Week 26. […] The peak and extent of systemic exposure of Beagle dogs to DMB were similar in males and females. Systemic exposure values at Week 26 were 138 to 153% of the values at Day 0 for 50 mg/kg, 130% for 150 mg/kg, and 100 to 102% 300 mg/kg dose levels, indicating an accumulation of DMB during this time period for the 50 and 150 mg/kg dose levels and no accumulation at the 300 mg/kg dose level.
Toxicokinetic information from the 26-week rat (Table 7) and 26-week dog toxicity studies (Table 8) are compared to systemic exposure (AUC) levels determined in a clinical study.

[1] = Immunotoxicology weight-of-evidence analysis, repeat dose dog study; format: in vivo, Beagle dog
Text: The immunotoxicological potential of DMB has been evaluated by a weight-of-evidence analysis of the data generated in the repeat dose Sprague Dawley rat and Beagle dog studies. In both studies, there were no effects of treatment on WBC levels or lymph node histopathology, which are predictive of potential immunotoxicity.

clinical = settings: human, in vivo
Experimental: The first clinical study was a phase 1, double-blind, placebo-controlled, single dose study of the tolerability, safety and pharmacokinetics of DMB in 32 healthy volunteers. Healthy, fasting adult volunteers received single oral doses of DMB or placebo capsules at one of four dose levels (2 mg/kg, 5 mg/kg, 10 mg/kg and 20 mg/kg). Six subjects received study drug (24 subjects total) and 2 subjects received placebo at each dose level. The 8 placebo subjects received a capsule containing only the excipients from the capsules containing the active agent. Subjects at the 20 mg/kg also received a second dose of study drug after a defined meal, one week following the fasting dose.
DMB was rapidly absorbed after oral administration, with peak concentrations of DMB occurring at 0.5 to 3 hours after dosing, followed by a mono-exponential decay phase, consistent with linear pharmacokinetics (FIG. 7; FIG. 8). Inter-subject variability in the primary PK parameters appears to be low, especially at higher doses.

[2] = Phase 1 repeat-dose clinical study, pharmacokinetics; format: in vivo, human; settings: for AUC(0-t): read-out: AUC0-24
Experimental: DMB was evaluated in a phase 1, placebo-controlled, randomized, repeat dose clinical study that evaluated tolerability, safety, and pharmacokinetics in healthy volunteers. A total of 41 subjects (31 receiving active drug and 10 receiving placebo) completed 14 consecutive days of study medication at daily dose levels of 5, 10 or 15 mg/kg (10 subjects received placebo). Given the importance of iron in red blood cell production, and the requirement for iron supplementation for induction of HbF with other erythropoietic agents, subjects at all 3 dose levels received oral ferrous gluconate on the study medication days. DMB was administered with food to all but one group (5 mg/kg, cohort 1). Subjects were admitted and observed for 24 hours following initial dosing. Thereafter, the study drug was taken once per day at home, except for the last study day. The subjects were monitored weekly for 6 weeks. Thirty-seven subjects completed the study and 4 subjects dropped out due to conflicts. Safety and PK data are available on these subjects.
The treatment groups included: Cohort 1: 5 mg/kg fasting, 6 active, 2 placebo; Cohort 2: 5 mg/kg with food, 7 active, 2 placebo (3 drop outs); Cohort 3: 5 mg/kg with food and iron supplements, 6 active, 2 placebo (1 drop out); Cohort 4: 10 mg/kg with food and iron supplements, 6 active, 2 placebo; and Cohort 5: 15 mg/kg with food and iron supplements, 6 active, 2 placebo. Subjects in Cohorts 3, 4, and 5 received a single daily dose of ferrous gluconate (325 mg). The iron supplement was administered to evaluate study medication tolerability when taken with iron. No subjects discontinued due to AEs or safety concerns. Fewer subjects reported an event in the highest dose cohort following eating a meal ([…]) than were reported in the lower dose cohorts ([…], 5 and 10 mg/kg).
Pharmacokinetic (PK) analyses of individual subject plasma concentration-time data were conducted for Day 0 (first dose) and Day 13 (at steady-state) in the multi-dose study. […] Analysis of PK data has shown that plasma drug levels >20 ug/mL persist for greater than 10 hours at the 10 and 15 mg/kg dose levels.

SMILES: CCC(C)(C)C(=O)[O-].[Na+] [DMB, Sodium 2,2-dimethylbutyrate]
- solubility (Solubility in water): > 500 mg/mL
- γ-globin mRNA expression relative to murine α-globin mRNA, mean increase above baseline (γ-globin mRNA): 1.8 fold
- AUC(0-inf) (in vivo; 50 mg/kg): 127 µg·h/mL
- AUC(0-inf) (in vivo; 150 mg/kg): 473 µg·h/mL
- AUC(0-inf) (in vivo; 300 mg/kg): 1470 µg·h/mL
- increase in exposure values for a 6-fold increase in dose (50 to 300 mg/kg/day) (in vivo; female): 10.31 fold
- increase in exposure values for a 6-fold increase in dose (50 to 300 mg/kg/day) (in vivo; female, 26 weeks): 7.58 fold
- increase in exposure values for a 6-fold increase in dose (50 to 300 mg/kg/day) (in vivo; male): 12.85 fold
- increase in exposure values for a 6-fold increase in dose (50 to 300 mg/kg/day) (in vivo; male, 26 weeks): 8.35 fold
- effects on WBC levels or lymph node histopathology [1]: no effects
- CL/F (clinical): 0.267 to 1.03 mL/min/kg
- Vd (clinical): 0.204 to 0.426 L/kg
- doses achieving biologically active plasma drug levels (clinical): ≥ 10 mg/kg
- half-life (clinical): 5.5 to 11.6 h
- AUC(0-inf) (clinical; 2 mg/kg): 38 ± 23 µg·h/mL
- AUC (clinical; 5 mg/kg): 38.3 µg·h/mL
- AUC(0-inf) (clinical; 5 mg/kg): 320 ± 40 µg·h/mL
- AUC(0-inf) (clinical; 10 mg/kg): 538 ± 125 µg·h/mL
- AUC (clinical; 20 mg/kg): 1190 µg·h/mL
- AUC(0-inf) (clinical; 20 mg/kg): 1190 ± 243 µg·h/mL
- effect of food on AUCINF (clinical; 20 mg/kg): no effects were observed
- Cmax (clinical; 20 mg/kg, mean Cmax): 89000 ng/mL
- time of peak concentrations after dosing (clinical; po): 0.5 to 3 h
- time for which plasma drug levels >20 ug/mL persist ([2]; 10 and 15 mg/kg dose levels): greater than 10 hours
- time for which targeted plasma drug levels were maintained ([2]; 10 and 15 mg/kg dose levels): more than 10 hours
- AUC(0-t) ([2]; human, plasma, oral, 5 mg/kg, Day 0, fed, with iron): 226 µg·h/mL
- Cmax ([2]; human, plasma, oral, 5 mg/kg, Day 0, fed, with iron, read-out: mean plasma Cmax): 16300 ng/mL
- AUC(0-t) ([2]; human, plasma, oral, 5 mg/kg, Day 0, without iron): 241 µg·h/mL
- Cmax ([2]; human, plasma, oral, 5 mg/kg, Day 0, without iron, read-out: Average Cmax): 17700 ng/mL
- Cmax ([2]; human, plasma, oral, 5 mg/kg, Day 13, fed, with iron, read-out: Cmax): 24800 ng/mL
- AUC ([2]; human, plasma, oral, 5 mg/kg, Day 13, with iron): 360 µg·h/mL
- AUC ([2]; human, plasma, oral, 5 mg/kg, Day 13, without iron): 312 µg·h/mL
- Cmax ([2]; human, plasma, oral, 5 mg/kg, Day 13, without iron, read-out: Average Cmax): 22400 ng/mL
- AUC(0-t) ([2]; human, plasma, oral, 10 mg/kg, Day 0, fed): 441 µg·h/mL
- Cmax ([2]; human, plasma, oral, 10 mg/kg, Day 0, fed, read-out: mean plasma Cmax): 30600 ng/mL
- AUC ([2]; human, plasma, oral, 10 mg/kg, Day 13): 538 µg·h/mL
- Cmax ([2]; human, plasma, oral, 10 mg/kg, Day 13, read-out: Cmax): 35700 ng/mL
- AUC(0-t) ([2]; human, plasma, oral, 15 mg/kg, Day 0, fed): 697 µg·h/mL
- Cmax ([2]; human, plasma, oral, 15 mg/kg, Day 0, fed, read-out: mean plasma Cmax): 48300 ng/mL
- AUC ([2]; human, plasma, oral, 15 mg/kg, Day 13): 958 µg·h/mL
- Cmax ([2]; human, plasma, oral, 15 mg/kg, Day 13, read-out: Cmax): 67600 ng/mL
- Tmax ([2]; human, plasma, oral, all dose levels, both days, dosing with food): 2.5 to 4.4 h
- half-life ([2]; human, plasma, oral, doses of 10 and 15 mg/kg, read-out: mean T1/2 (converted)): 11 h
